This is an account of results in article PMC10528299, “Targeting FAK/PYK2 with SJP1602 for Anti-Tumor Activity in Triple-Negative Breast Cancer” (Current Issues in Molecular Biology, 2023).

Series [1] deals with T1, FAK [pY397] in MDA-MB-231 cells (Homo sapiens, UniProt Q05397).
T1 construct: endogenous in cells; host or cells: MDA-MB-231
The series is described as follows: FAK [pY397] ELISA in MDA-MB-231 cells. The settings on record: MDA-MB-231, 1 h treatment, mean ± SEM (n = 3); read-out: IC50 FAK phosphorylation (pY397 ELISA). The format is cell-based. How it is done: TNBC cells were seeded into 60 mm dishes at a density of 1 × 10^6 cells/dish in 5 mL of culture media. After 24 h, cells were treated with concentrations ranging from 1 nM to 10 μM of SJP1602 for 1 h, and cell lysates were prepared to detect phospho-FAK levels. The FAK [pY397] enzyme-linked immunosorbent assay was performed according to the manufacturer’s instructions. The absorbance at 450 nm was measured to quantify the results.

The test system of series [2] is MDA-MB-231 cells. The series is described as follows: 2D cell invasion assay (Boyden chamber, Matrigel). The format is cell-based, human. The settings on record: 5 μM, 48 h, Matrigel-coated Boyden chamber. The method, then: Cell invasion capacity was analyzed using the Boyden chamber assay. The 24-well Boyden chambers with Matrigel-coated filters (8 μm pore size) were obtained from Becton-Dickinson (San Diego, CA, USA). Cells treated with vehicle or FAK inhibitors (SJP1602, VS-6063, GSK2256098) at a concentration of 5 μM were resuspended in serum-free media and 5 × 10^5 cells were added to the Matrigel-coated upper compartment of the invasion chambers. Fresh culture medium with 5% FBS was added to the lower compartment. After 48 h, cells on the upper side of the filter were removed using cotton swabs. The underside of the filter was fixed in 100% methanol, washed in PBS, and stained using crystal violet. Cells that invaded the Matrigel were analyzed using a microscope (Nikon, TE2000). Image analysis was performed using the color analysis function in Adobe Photoshop 2021 (Version 22.4.2, Adobe, Adobe (San Jose, CA, USA)). Quantitative data were obtained from color measurement records in Adobe Photoshop 2021.

The target of series [3] is T2, PYK2 (Homo sapiens, UniProt Q14289).
T2 construct: purchased Promega V4083
T2 sequence (Q14289 whole entry): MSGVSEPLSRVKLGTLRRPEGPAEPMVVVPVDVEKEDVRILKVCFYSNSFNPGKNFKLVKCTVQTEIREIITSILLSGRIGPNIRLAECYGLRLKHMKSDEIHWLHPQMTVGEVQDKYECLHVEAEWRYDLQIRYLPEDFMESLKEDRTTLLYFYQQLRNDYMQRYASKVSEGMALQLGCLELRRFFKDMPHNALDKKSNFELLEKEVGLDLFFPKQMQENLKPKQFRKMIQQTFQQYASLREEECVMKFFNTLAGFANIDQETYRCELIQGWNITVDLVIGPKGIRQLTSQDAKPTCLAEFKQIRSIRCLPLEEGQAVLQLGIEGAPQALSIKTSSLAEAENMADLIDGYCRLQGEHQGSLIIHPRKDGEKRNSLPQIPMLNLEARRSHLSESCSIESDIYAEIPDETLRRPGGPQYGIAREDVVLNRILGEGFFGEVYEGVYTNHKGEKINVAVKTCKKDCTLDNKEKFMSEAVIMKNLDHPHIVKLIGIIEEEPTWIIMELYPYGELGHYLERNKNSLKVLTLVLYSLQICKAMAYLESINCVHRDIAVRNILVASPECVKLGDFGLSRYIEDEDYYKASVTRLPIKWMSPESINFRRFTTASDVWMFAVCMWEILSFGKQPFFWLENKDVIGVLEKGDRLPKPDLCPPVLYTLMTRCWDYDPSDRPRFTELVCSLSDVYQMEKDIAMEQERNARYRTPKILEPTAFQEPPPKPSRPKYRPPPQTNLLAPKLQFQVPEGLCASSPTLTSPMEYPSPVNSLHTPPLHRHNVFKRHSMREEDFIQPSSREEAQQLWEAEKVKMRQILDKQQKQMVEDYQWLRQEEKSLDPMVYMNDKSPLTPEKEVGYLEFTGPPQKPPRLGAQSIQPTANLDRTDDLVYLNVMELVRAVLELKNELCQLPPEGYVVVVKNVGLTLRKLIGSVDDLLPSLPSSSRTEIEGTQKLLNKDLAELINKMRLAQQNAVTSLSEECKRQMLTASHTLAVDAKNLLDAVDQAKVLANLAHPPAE
Description: ADP-Glo kinase assay PYK2. It is filed as biochemical. The settings on record: mean ± SEM (n = 3). How it is done:
(§1) The kinase assays were performed and quantified according to the manufacturer’s instructions using the ADP-Glo™ Kinase Assay Kit for FAK (Promega, V1971), PYK2 (Promega, V4083) and InsR (Promega, V3901). Each kinase reaction mixture was prepared to contain the compounds of interest. After thorough pipetting, 25 μL of the mixture was added to each well and incubated for 1 h at room temperature. Subsequently, 25 μL of ADP-Glo reagent was added, followed by a 40 m incubation at room temperature. Next, 50 μL of the kinase detection reagent was added, and the mixture was incubated for an additional 30 m at room temperature. Luminescence was measured using the Tecan Spark 10M (Integration time: 1 s) (Männedorf, Switzerland).

The nature of series [4]: Pharmacokinetics in SD rats. It is filed as in vivo, rat. The method, then: The pharmacokinetics (PK) study was conducted in male SD rats. Three rats received a single-dose intravenous injection of SJP1602 at 5 mg/kg, and another set of three rats received a single-dose oral administration of SJP1602 at 20 mg/kg. The vehicle composition used was DMA 3% and Cremophor ELP 4%. Blood drug concentrations over time were determined by drawing blood after 0.17, 0.5, 1, 2, 4, 6, and 24 h. Plasma was isolated using K3EDTA anticoagulation tubes, and the drug concentration in the plasma was analyzed by LC/MS/MS (Waters, MA, USA). To analyze the concentration of pretreated rat plasma samples, a Waters Acquity ultra-performance liquid chromatography system (UPLC, Waters) was employed, in tandem with a C18 column (Acquity UPLC® BEH C18 1.7 μm, 2.1 × 50 mm). The mass spectrometry analysis was conducted using the Waters Xevo-TQ-S micro. For the mobile phases, phase A consisted of distilled water with 0.1% formic acid, while phase B comprised methanol, also with 0.1% formic acid. PK parameters were subsequently derived using WinNonlin software (version 2.1), which enabled the determination of AUC (ng×h/mL), Cmax (ng/mL), and bioavailability (BA). The area under the drug concentration curve (AUC) was calculated utilizing the trapezoidal rule, focusing on the time interval AUC0–24h.

The target in series [5] is T3, Insulin Receptor (InsR) (Homo sapiens, UniProt P06213).
T3 construct: purchased Promega V3901
T3 sequence (P06213 28-1382): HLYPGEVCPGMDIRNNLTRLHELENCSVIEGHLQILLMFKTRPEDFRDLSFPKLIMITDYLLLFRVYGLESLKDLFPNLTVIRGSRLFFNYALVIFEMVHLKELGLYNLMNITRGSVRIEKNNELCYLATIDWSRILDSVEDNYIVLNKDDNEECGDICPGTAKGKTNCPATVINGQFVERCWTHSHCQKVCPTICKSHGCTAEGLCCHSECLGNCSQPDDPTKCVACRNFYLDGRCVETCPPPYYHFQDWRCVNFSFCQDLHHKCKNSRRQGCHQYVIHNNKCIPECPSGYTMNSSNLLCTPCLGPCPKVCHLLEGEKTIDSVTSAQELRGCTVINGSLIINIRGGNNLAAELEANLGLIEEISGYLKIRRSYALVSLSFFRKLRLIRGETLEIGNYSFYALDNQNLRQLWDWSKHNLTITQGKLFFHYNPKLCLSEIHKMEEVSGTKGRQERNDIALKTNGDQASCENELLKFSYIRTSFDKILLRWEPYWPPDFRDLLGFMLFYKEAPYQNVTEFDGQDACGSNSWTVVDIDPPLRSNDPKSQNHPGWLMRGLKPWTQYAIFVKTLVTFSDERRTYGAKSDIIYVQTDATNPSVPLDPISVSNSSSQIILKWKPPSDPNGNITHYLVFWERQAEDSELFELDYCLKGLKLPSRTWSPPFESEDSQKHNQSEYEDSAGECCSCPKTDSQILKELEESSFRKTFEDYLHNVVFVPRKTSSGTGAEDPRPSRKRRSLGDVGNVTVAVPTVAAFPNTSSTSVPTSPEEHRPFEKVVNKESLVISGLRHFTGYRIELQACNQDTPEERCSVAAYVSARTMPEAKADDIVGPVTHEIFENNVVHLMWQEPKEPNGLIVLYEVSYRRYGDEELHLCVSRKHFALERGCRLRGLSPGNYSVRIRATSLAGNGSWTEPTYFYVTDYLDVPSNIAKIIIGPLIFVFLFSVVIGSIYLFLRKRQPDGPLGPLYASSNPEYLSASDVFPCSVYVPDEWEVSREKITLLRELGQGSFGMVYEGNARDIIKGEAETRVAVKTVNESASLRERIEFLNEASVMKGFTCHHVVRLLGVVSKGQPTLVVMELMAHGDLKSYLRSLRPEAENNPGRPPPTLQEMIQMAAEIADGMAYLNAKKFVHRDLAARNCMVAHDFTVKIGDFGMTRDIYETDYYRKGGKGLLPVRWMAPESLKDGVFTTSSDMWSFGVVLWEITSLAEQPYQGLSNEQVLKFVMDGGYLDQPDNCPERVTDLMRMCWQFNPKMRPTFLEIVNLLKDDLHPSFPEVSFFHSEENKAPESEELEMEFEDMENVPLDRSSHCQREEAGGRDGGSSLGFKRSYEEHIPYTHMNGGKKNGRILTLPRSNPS
The series is described as follows: ADP-Glo kinase assay InsR. It is filed as biochemical. The settings on record: mean ± SEM (n = 3). How it is done: as §1

Series [6] in a line: Cytotoxicity on normal cell line FDF. The format is cell-based. The settings on record: FDF cells (normal cell line); read-out: Cytotoxicity on Normal Cell Lines IC50.
Series [7] deals with MDA-MB-231, 4T1, and Hs578T cells. The series is described as follows: 3D cell invasion assay. The settings on record: 1 µM, 72 h, compared to VS-6063 and GSK 2256098. The format is cell-based. How it is done: Cells were added to an ultra-low 96-well round-bottom plate at a density of 5 × 10^3 cells/well and cultured for 3 days to form spheroids. The medium was removed, and a mixture of neutralized Type I Collagen and Matrigel was added to the wells. After 1 h of incubation, compound concentrations (2×) in 100 μL of solution were added per well. The plate was then incubated for 72 h. Relative invasion was quantified based on the following formula using the microscope and imaging software ImageJ (Version 2.1.0/1.54e, National Institutes of Health, Bethesda, MD, USA):Relative invasion = (total area of compound treated group − spheroid area of compound treated group/(total area of control − spheroid area of control)(1)

Series [8] concerns the target T4, FAK (Homo sapiens, UniProt Q05397).
T4 construct: purchased Promega V1971
Description: ADP-Glo kinase assay FAK. The settings on record: mean ± SEM (n = 3). It is filed as biochemical. How it is done:
as §1

Series [9] is described as follows: Toxicity and body weight in xenograft mice. Conditions: mouse xenograft experiments, 20-80 mg/kg po daily.
Description: Upon establishment of tumors, with an average tumor volume reaching approximately 100 mm^3, mice were grouped and subjected to daily oral dosing. […] The duration of drug administration was defined for 2 weeks based on the growth rate of the vehicle group of each xenografted tumor. The tumor volume was measured three times a week for potency measurement, and the body weight of mice was also measured three times a week for toxicity evaluation in vivo.
Series [10] can be described thus: Cytotoxicity on normal cell line CCD-18Co. It is filed as cell-based. The settings on record: human, CCD-18Co cells (normal cell line); read-out: Cytotoxicity on Normal Cell Lines IC50.
The mark [11] stands for this setting: male, SD, rat, plasma, po, 20 mg/kg, po 20 mg/kg, male SD rats.
Where [12] appears, read: rat, plasma, iv 5 mg/kg, male SD rats.
The mark [13] stands for this setting: rat, plasma, po 20 mg/kg, male SD rats.

Structures are written as SMILES.

T1 sequence (Q05397 whole entry): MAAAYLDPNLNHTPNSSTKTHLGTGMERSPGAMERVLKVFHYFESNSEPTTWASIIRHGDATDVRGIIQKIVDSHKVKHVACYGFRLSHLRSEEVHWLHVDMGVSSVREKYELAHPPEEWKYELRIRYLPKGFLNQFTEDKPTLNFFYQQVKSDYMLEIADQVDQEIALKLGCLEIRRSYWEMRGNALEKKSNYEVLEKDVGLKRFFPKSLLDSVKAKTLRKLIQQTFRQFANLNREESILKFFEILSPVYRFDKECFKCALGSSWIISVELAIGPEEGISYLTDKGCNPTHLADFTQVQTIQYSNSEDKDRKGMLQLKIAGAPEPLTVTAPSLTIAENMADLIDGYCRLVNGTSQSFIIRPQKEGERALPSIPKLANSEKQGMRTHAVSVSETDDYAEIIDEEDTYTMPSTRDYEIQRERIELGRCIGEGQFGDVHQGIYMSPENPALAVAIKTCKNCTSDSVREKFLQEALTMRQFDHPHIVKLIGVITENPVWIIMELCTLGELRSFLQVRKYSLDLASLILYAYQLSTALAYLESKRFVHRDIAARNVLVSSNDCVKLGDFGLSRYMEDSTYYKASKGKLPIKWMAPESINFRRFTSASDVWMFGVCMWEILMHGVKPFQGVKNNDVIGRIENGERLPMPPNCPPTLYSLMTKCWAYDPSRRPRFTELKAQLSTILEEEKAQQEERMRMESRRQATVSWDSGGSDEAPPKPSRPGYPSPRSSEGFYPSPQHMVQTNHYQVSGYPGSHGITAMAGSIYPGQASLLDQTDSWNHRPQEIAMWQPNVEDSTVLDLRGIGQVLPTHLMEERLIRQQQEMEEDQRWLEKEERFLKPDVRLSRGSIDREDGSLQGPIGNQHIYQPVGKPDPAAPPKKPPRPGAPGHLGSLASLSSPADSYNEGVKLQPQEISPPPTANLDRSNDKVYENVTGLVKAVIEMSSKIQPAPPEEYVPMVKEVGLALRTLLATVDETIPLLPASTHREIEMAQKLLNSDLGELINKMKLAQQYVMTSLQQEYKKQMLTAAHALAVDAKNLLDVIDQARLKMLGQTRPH
T4 sequence (Q05397 whole entry): as above

As for `CNC(=O)c1cccc(C)c1Nc1nc(Nc2ccc(N3CCN(C4C5CC6CC4CC(O)(C6)C5)CC3)cc2OC)ncc1C(F)(F)F` (stereo not drawn) [SJP1602, 2-((2-((4-(4-((2s,5r)-5-hydroxyadamantan-2-yl)piperazin-1-yl)-2-methoxyphenyl)amino)-5-(trifluoromethyl)pyrimidin-4-yl)amino)-N,3-dimethylbenzamide], the IC50 in series [1] is 20 ± 7 nM; in [3], 24.7 ± 0.919 nM; in series [5] it was 1170 ± 60.1 nM; in [6], more than 10000 nM; in series [8], 3.7 ± 0.007 nM; in series [10] it was more than 10000 nM. Moreover, in series [2], the “invasion of MDA-MB-231 cells” value was “markedly inhibited”. In addition, the half-life in series [4] (male, SD, rat, plasma, iv, 5 mg/kg, iv 5 mg/kg, male SD rats) is 0.93 ± 0.25 h; in series [4] (setting [11]), 2.2 h. This compound also registered a bioavailability in [4] (setting [11]) of 45%. Further, the AUC in series [4] (male, SD, rat, plasma, single oral dose 20 mg/kg, rats, read-out: area under the curve (AUC)) came to 22 µM·h. In addition, the T1/2 in series [4] (po 20 mg/kg, male SD rats, 20 mg/kg) stood at 2.24 ± 0.19 h. The AUC(0-t) in [4] (setting [12]) was 7070 ng·h/mL; in [4] (setting [13]) it was 14700 ng·h/mL. The results for the Cmax in series [4] (setting [12]) and in series [4] (setting [13]) were 3890 ng/mL and 3270 ng/mL, respectively. The Tmax was 0.28 h in [4] (setting [12]) and 1 h in series [4] (setting [13]). In addition, the peak concentration in series [4] (single oral dose 20 mg/kg, rats) turned out to be 4.9 µmol/L. In addition, in series [7], the “TNBC cell invasion (3D)” value is “significantly inhibits”. For the same compound, in series [9], the “signs of toxicity or weight loss in xenograft mice” value is “no signs of toxicity or significant weight loss”.
